Literature values, collected in patent US7235557B2, “Compounds and their uses” (MGI GP, Inc., priority 2000, dated 2007).

Target: PARP (Homo sapiens, UniProt P09874)
Settings: read-out: IC50 for inhibiting PARP; reported by Suto et al.; cited from earlier work

PARP, sequence (P09874 whole entry): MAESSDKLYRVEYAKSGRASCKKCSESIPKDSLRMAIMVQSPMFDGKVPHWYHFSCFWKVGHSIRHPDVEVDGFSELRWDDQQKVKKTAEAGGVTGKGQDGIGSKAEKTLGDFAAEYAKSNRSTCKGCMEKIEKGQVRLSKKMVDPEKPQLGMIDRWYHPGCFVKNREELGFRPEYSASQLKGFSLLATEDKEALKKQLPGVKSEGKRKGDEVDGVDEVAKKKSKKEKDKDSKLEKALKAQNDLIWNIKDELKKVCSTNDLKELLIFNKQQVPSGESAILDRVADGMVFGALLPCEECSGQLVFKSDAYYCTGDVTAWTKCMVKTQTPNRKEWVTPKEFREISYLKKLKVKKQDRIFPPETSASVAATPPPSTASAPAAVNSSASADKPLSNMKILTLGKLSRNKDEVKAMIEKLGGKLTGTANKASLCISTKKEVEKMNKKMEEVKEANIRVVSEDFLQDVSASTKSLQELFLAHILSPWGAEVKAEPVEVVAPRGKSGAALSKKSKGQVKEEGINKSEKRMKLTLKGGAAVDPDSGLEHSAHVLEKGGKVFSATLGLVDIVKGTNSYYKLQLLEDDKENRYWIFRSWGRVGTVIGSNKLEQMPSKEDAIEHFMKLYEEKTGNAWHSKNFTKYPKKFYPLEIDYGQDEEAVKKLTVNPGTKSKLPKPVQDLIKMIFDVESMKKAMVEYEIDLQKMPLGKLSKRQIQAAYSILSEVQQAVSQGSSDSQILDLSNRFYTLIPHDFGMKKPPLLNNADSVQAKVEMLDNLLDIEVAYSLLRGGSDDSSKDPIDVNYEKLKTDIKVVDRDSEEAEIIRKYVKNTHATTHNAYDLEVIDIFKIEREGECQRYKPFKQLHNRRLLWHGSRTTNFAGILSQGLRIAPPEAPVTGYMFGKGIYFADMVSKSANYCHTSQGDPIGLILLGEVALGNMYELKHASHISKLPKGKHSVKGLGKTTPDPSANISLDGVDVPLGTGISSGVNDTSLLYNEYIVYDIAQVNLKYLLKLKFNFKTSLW

In the case of O=C1NCCc2c(OCCCCN3CCCCC3)cccc21 [3,4-dihydro-5-[4-(1-piperidinyl)butoxy]-1(2H)-isoquinolinone], the IC50 is given as 40 nM.
